Assay results reported in ChEMBL document CHEMBL4483862, “Open-source discovery of chemical leads for next-generation chemoprotective antimalarials” (2018).

Test system: Plasmodium berghei
Assay: Luciferase/luciferin-expressing antifolate-resistant parasites were used to infect a culture of HepG2 cells that were pre-incubated with compounds. Infected hepatocytes emit light due to the luciferase reaction. Assay results are presented as the percent inhibition of light emission compared to control. […]
Format: functional
Conditions: sporozoite; for IC50: read-out: LUCIFERASE INFECTION ASSAY - IC50; for IC90: read-out: LUCIFERASE INFECTION ASSAY - IC90

Structure (SMILES)	IC50 [µM]	IC90 [µM]
CCN(CC)C(=O)c1sc2nc(-c3ccccn3)nc(O)c2c1C	> 10	> 10
C=CCn1c(C)cc(C2=NN=C(NC(C)(C)C)SC2)c1C	0.366	0.38
Cc1ccc(C(C)C)c(OCc2ccc(-c3nnco3)cc2)c1	> 10	> 10
COc1cccc(C(=O)OCC(=O)c2c[nH]c3ccccc23)c1O	> 10	> 10
COc1cc(NC(=O)COC(=O)CNC(=O)C2CCCCC2)cc(OC)c1	> 10	> 10
CCOc1cc(/C=C2\COc3ccccc3C2=O)ccc1OCC(=O)N(C)C	> 10	> 10
CCc1ccc(CN(C)CC(O)COc2cccc3ccccc23)cc1 (stereo not given)	> 10	> 10
CCc1nc(Sc2nnnn2-c2ccccc2)c2c3c(sc2n1)CCCC3	> 10	> 10
CCCn1nc(C(=O)N2CCCc3ccccc32)c2ccccc2c1=O	> 10	> 10
COc1cc(C(=O)c2c(C)c(CCC#N)n3ccccc23)cc(OC)c1OC	2	6.92
COc1cc2c(C#N)c(N3CCc4ccccc4C3)nc(N)c2c(N)n1	> 10	> 10
O=c1cc(CN2CCCCCC2)nc2sccn12	1.12	1.39
Cc1ccc(OCC(O)CN2CCc3ccccc3C2)c(C)c1 (stereo not given)	> 9.49	> 9.49
COCC(C)n1c(C)cc(C(=O)COC(=O)c2cccn2C)c1C (stereo not given)	1.82	6.18
CC(C)(c1ccc(O)cc1)c1ccc(Cl)cc1	> 10	> 10
CC1CCCC(NC(=O)CSc2nnc(O)n2Cc2ccccc2)C1C (stereo not given)	> 10	> 10
COc1ccc(NC(=O)c2ccc(O)nc2)cc1S(=O)(=O)N1CCOCC1	> 10	> 10
Cc1ccc(C)c(Sc2ccc(S(=O)(=O)NCCN(C)C)cc2)c1	> 10	> 10
O=c1c2c(-c3ccccc3)csc2nc2c3ccccc3c(NCCO)nn12	> 10	> 10
CCOC(=O)c1sc2c(c1C)C(c1ccccc1)C1C(=O)CC(C)(C)CC1=N2 (stereo not given)	1.87	4.4
Cc1cc(C(=O)C(C)OC(=O)C2=COCCO2)c(C)n1-c1ccc(Cl)cc1 (stereo not given)	6.48	> 10
CC(OC(=O)c1ccc2ncsc2c1)C(=O)N1CCCC1 (stereo not given)	> 10	> 10
COc1ccc(/C=C/c2nc3cc(-c4nc5ccccc5[nH]4)ccc3s2)cc1	1.84	4.48

Structure (SMILES)	IC50 [µM]	IC90 [µM]
CC(C)(c1ccccc1)c1ccc(OCC(O)CN2CCC(C(N)=O)CC2)cc1 (stereo not given)	> 10	> 10
COc1cc(C(=O)OCc2c(C)cc(C(C)(C)C)cc2C)cc(OC)c1OC	> 10	> 10
Cc1ccc(Sc2ncccc2C(=O)Nc2nc3c(s2)CCCC3)cc1	3.38	3.95
CCc1cccc(CC)c1NC(=O)COC(=O)c1[nH]c(C)c(C(C)=O)c1C	> 10	> 10
CC(C)c1ccccc1N(C(=O)C1CCC1)c1nc2ccccc2s1	> 10	> 10
COc1cc(C(=O)NCCN(C(C)C)C(C)C)cc(OC)c1C	> 10	> 10
COc1ccc(-c2nc(NC(=O)c3cnc(C)cn3)sc2C)cc1	> 10	> 10
COc1ccccc1C(=O)N(c1ccc(F)cc1)c1nc2ccccc2s1	> 10	> 10
O=C(COC(=O)CCC1CCCC1)Nc1ncc(C(F)(F)F)cc1Cl	> 10	> 10
CCn1c(-c2ccccc2)c(C(=O)COc2ccccc2OC)c2ccccc21	> 10	> 10
CC1CCN(Cc2c(-c3ccccc3)n(C)c3ccccc23)CC1	> 10	> 10
COc1ccc(OC)c(NC(=O)c2cc(-c3ccccc3)nn2-c2ccccc2)c1	> 10	> 10
Cc1cc(C(=O)COC(=O)C2=COCCO2)c(C)n1Cc1ccco1	> 10	> 10
C=CCN1C(=O)C(O)(c2cnc(N)s2)c2ccccc21 (stereo not given)	> 10	> 10
Cc1ccc(NC(=O)C(OC(=O)c2c(C)noc2C)c2ccccc2)cc1Cl (stereo not given)	> 10	> 10
Cc1ccc(C2(C(F)(F)F)NC(=O)c3ccc(OC(C)C)cc3O2)cc1 (stereo not given)	3.99	> 10
Cc1cc(C(=O)OCC(=O)N(CCC#N)c2ccc(F)cc2)c2ccccc2n1	> 10	> 10
CC(=O)c1c(C)[nH]c(C(=O)CN(C)Cc2ccc(C(C)(C)C)cc2)c1C	> 10	> 10
CN(C)C(C(=O)c1ccccc1)C(c1ccc(F)cc1)c1ccc(F)cc1 (stereo not given)	> 10	> 10
Cc1cc(C)c(-c2csc(NC(=O)Cc3ccccc3)n2)c(C)c1	2.81	3.56
Cc1nnc(NC(=O)c2ccc3c(c2)SC2=NS(=O)(=O)CCN23)s1	> 10	> 10
c1ccc(-c2ncc(CSc3ncnc4sccc34)s2)cc1	> 10	> 10
O=C1N=C(NC2CCCCC2)S/C1=C\c1cccc(C(F)(F)F)c1	> 10	> 10

Structure (SMILES)	IC50 [µM]	IC90 [µM]
CNc1nc(CSc2ccc(Cl)cc2)nc2sc3c(c12)CCC3	> 10	> 10
Cc1nc(SCC(=O)c2cc(C)n(-c3ccccc3)c2C)c2ccsc2n1	> 10	> 10
Cc1cc(C)n2cc(CN(C)Cc3ccccc3)nc2n1	> 10	> 10
Cc1ccc(NCC(=O)c2ccc(-n3nncc3-c3ccccc3)cc2)cc1	> 10	> 10
COc1ccccc1-c1nc(CCl)cs1	> 10	> 10
Cc1ccc(Oc2ccc(S(=O)(=O)NCCN(C)C)cc2)cc1	> 10	> 10
CCN(C(=O)c1ccccc1Br)c1nc2c(C)cccc2s1	> 10	> 10
Cc1cc(C(=O)CSc2nc3ccccc3s2)c(C)n1CC1CCCO1 (stereo not given)	> 10	> 10
Cc1cc(C(=O)OCc2c(Cl)cccc2Cl)c(C)o1	> 10	> 10
CCN(C(=O)COc1ccc(-c2ccccc2)cc1)c1cccc2ccccc12	> 10	> 10
CCOC(=O)c1[nH]c2c(c1C)C(=O)/C(=C/c1ccc(Cl)cc1)CC2	> 10	> 10
O=S(=O)(Oc1ccc2oc3ccccc3c2c1)c1ccccc1F	> 10	> 10
Cc1cc2ccccn2c1C(=O)c1cc2c(C)nn(-c3ccccc3)c2s1	> 10	> 10
O=C1Nc2ccccc2SC1c1c(-c2ccc(Cl)cc2)cc2ccccn12 (stereo not given)	> 10	> 10
CC(C)CNC(=O)NC(=O)COC(=O)c1c2c(nc3ccccc13)CCCCC2	3.9	7.96
O=C(CCN1c2ccccc2Sc2ccccc21)Nc1ccc2ccccc2c1	> 10	> 10
COc1ccc(/C=C/c2nc3cc(C)c(C)cc3s2)c(OC)c1OC	4.27	8.68
CC(C)(C)c1ccc(/C=C2\CCc3c2nc2ccccc2c3C(=O)OCC#N)cc1	> 10	> 10
O=C1c2ccccc2S(=O)(=O)N1c1ccccc1F	> 10	> 10
O=C(Nc1nc(-c2ccc3c(c2)CCCC3)cs1)c1cnccn1	> 10	> 10
Cc1noc(C)c1COC(=O)CC(c1ccccc1)c1ccccc1	> 10	> 10
c1ccc(-n2nnnc2Sc2ncnc3sc4c(c23)CCC4)cc1	> 10	> 10
Cc1cc(C(=O)CSC(c2ccccc2)c2ccccc2)c(C)n1C	> 10	> 10

Structure (SMILES)	IC50 [µM]	IC90 [µM]
O=C(COc1ccccc1-c1ccccc1)NCC1CCCCC1	> 10	> 10
COc1ccc(C2CC(CCc3c[nH]c4ccccc34)=NN2c2ccccc2)cc1 (stereo not given)	3.35	3.8
O=C(C1CCCCC1)N1N=C2/C(=C/c3ccco3)CCCC2C1c1ccco1 (stereo not given)	> 10	> 10
CC1CCc2c(sc3ncnc(NCC(c4ccccc4)N(C)C)c23)C1 (stereo not given)	> 10	> 10
C(=C(c1nc2ccccc2s1)c1nc2ccccc2s1)c1ccccn1	> 10	> 10
O=C(CCc1nc2ccccc2s1)OCCOc1ccccc1F	> 10	> 10
O=c1c2c(-c3ccccc3)csc2nc2c3ccccc3c(Cl)nn12	> 10	> 10
C[C@H](NC(N)=O)C(=O)OCC(=O)Nc1cccc(C#N)c1	> 10	> 10
CCOc1ccc(S(=O)(=O)Nc2ccccc2C(=O)Nc2nnc[nH]2)cc1	> 10	> 10
CCOC(=O)c1sc(N)c(C#N)c1COC(=O)c1c(CC)noc1C	0.244	0.249
O=C(Nc1nc2ccccc2[nH]1)c1oc2ccccc2c1COc1ccccc1	> 10	> 10
Oc1cc2c(cc1CN1CCN(Cc3ccc4c(c3)OCO4)CC1)CCC2	> 10	> 10
Cc1ccc(S(=O)(=O)NC(=O)c2ccc(Cl)nc2Cl)cc1	> 10	> 10
COc1cccc(/C=C(\c2nc3ccccc3[nH]2)c2nc3ccccc3s2)c1	> 10	> 10
Cn1c(N)c(N2CCNCC2)c(=O)n(C)c1=O	> 10	> 10
Cc1cc(C)c2c(c1)C(=O)/C(=C/c1ccc(N(C)CCC#N)cc1)CC2	> 10	> 10
O=C(O)CSc1nc2ccccc2c(=O)n1-c1ccccc1Cl	> 10	> 10
COc1ccc(C)cc1-n1c(=O)c2ccccc2n2c(SC)nnc12	> 10	> 10
CC(C)c1ccccc1NC(=O)COC(=O)C(C)(C)Oc1ccc(Cl)cc1	> 10	> 10
Cn1nnnc1Sc1ncnc2sc3c(c12)CCCC3	> 10	> 10
O=C1N=C(NC2CCCC2)S/C1=C\c1ccc(Cl)cc1	> 10	> 10
